The test system of one data set is HIV-1 IIIB. The following applies: for EC50: read-out: EC50 (μM) (M ± SD) for inhibition of p24, MT-2 cells; for SI (CC50/EC50): selectivity index.
Data set [1] has as its target gp41 six-helix bundle formation between N36 and C34 (Human immunodeficiency virus type 1 group M subtype B, UniProt P04578). To be noted: read-out: IC50 for inhibition of six-helix bundle formation between N36 and C34; sandwich ELISA, FIG. 3. On the procedure:
ELISA for screening for compounds that inhibit the gp41 six-helix bundle formation. A sandwich ELISA as previously described (27) was used to screen for compounds that inhibit the gp41 six-helix bundle formation. Briefly, peptide N36 (2 μM) was pre-incubated with a test compound at the indicated concentrations at 37° C. for 30 min, followed by addition of C34 (2 μM). In the control experiments, N36 was pre-incubated with C34 at 37° C. for 30 min, followed by addition of the test compound. After incubation at 37° C. for 30 min, the mixture was added to wells of a 96-well polystyrene plate (Costar, Corning Inc., Corning, N.Y.) which were precoated with IgG (2 μg/ml) purified from rabbit antisera directed against the N36/C34 mixture. […] Absorbance at 450 nm was measured using an ELISA reader (Ultra 384, Tecan, Research Triangle Park, N.C.). […] Chou (Sloan-Kettering Cancer Center, New York, N.Y.).
A model system of the gp41 six-helix bundle was established by mixing the N— and C-peptides at equal molar concentrations (16).
A general note: An ELISA detects its analyte on a solid surface through an enzyme-linked reagent.

Data set [2] relates to HIV-1IIIB infected H9 cells (H9/HIV-1IIIB) and MT-2 cells. Briefly: HIV-1 mediated cell-cell fusion (dye transfer assay). The following applies: for EC50: H9/HIV-1IIIB with MT-2 cells, read-out: EC50 (μM) (M ± SD) for inhibition of Cell fusion; for inhibition of fusion of HIV-1IIIB infected H9 cells with uninfected MT-2 cells: dose dependent, FIG. 2. It is filed as cell-based. A digest of the protocol:
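Calcein-AM-labelled H9/HIV-1IIIB cells were co-incubated with MT-2 cells (1:5) for 2 h at 37 °C with or without compounds. Fused and unfused labelled cells counted by fluorescence microscopy; percent fusion inhibition and IC50 calculated.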

Where [3] appears, read: read-out: IC50 (μM) (Mean ± SD), HIV-1 strain IIIB.

Molecules are shown by their SMILES. Where two headings read alike, the source gives them in different places.

Chain of gp41 six-helix bundle formation between N36 and C34 (P04578 546-581): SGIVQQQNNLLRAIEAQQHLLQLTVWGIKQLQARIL

In the case of `CCN1C(=O)/C(=C/c2ccc(-c3cccc(C(=O)O)c3)o2)SC1=S` [NB179], the EC50 with HIV-1 IIIB (HIV-1 IIIB) amounted to 0.501 ± 0.039 µM; in data set [2] it was 3.66 ± 0.154 µM. Besides, the IC50 came out at 0.501 ± 0.039 µM with HIV-1 IIIB (setting [3]) and 2.51 ± 0.27 µM in data set [1]. Besides, the “SI (CC50/EC50)” value in the data set with HIV-1 IIIB is reported as >1230.77. The “inhibition of fusion of HIV-1IIIB infected H9 cells with uninfected MT-2 cells” value (shortened to “inhibition”) in data set [2] is “inhibited fusion”.
For `O=C(O)c1cc(-c2ccc(/C=C3\SC(=S)N(CCc4ccccc4)C3=O)o2)ccc1Cl` [NB206], the figures for the concentration for a half-maximal effect (EC50) (with HIV-1 IIIB (HIV-1 IIIB); in data set [2]) were 0.019 ± 0.002 µM and 0.459 ± 0.05 µM, respectively. Further, the IC50 was 0.019 µM in the data set on HIV-1 IIIB (read-out: IC50 inhibiting HIV-1 replication, HIV-1 IIIB); 0.83 ± 0.03 µM in data set [1]; < 0.667 µM in data set [2]. Moreover, the “SI (CC50/EC50)” value in the data set on HIV-1 IIIB worked out at 981.11. For the same compound, in data set [2], the “inhibition” value is “inhibited fusion”.
With `O=C(O)c1cccc(-c2ccc(/C=C3\SC(=S)N(c4ccc(Cl)cc4Cl)C3=O)o2)c1` [NB231], the figures for the EC50 (in the data set on HIV-1 IIIB (HIV-1 IIIB); in data set [2]) were 0.189 ± 0.042 µM and 0.982 ± 0.054 µM, respectively. Also, the IC50 with HIV-1 IIIB (setting [3]) was found to be 0.189 ± 0.042 µM; in data set [1] it was 0.93 ± 0.33 µM. For the same compound, the “SI (CC50/EC50)” value in the data set on HIV-1 IIIB is 656.56. In data set [2], the “inhibition” value is given as “inhibited fusion”.

The term EC50 denotes the concentration that produces a half-maximal response. What is called IC50 is the concentration at which inhibition is half-maximal.

For the origin of these results see patent US20060287319A1, “Anti-viral compositions comprising heterocyclic substituted phenyl furans and related compounds” (priority 2005, published 2006).
